# Where two headings read alike, the source gives them in different places.
# Key:
# [1] = system: TA1535
# Protocol: (§1) This assay is carried out to test mutagenicity of chemical substances using histidine auxotrophic strains that are one of Salmonella Typhimurium mutants. […] When various mutagens are added to the culture medium, only revertants generated by reverse mutation survive.
# (§2) Ames test was carried out using […]. […] After incubation, the number of revertant colonies was counted. 3 plates were prepared for each test and the average was calculated.
# [2] = system: TA100
# Protocol: as §1, §2
# [3] = system: TA98
# Protocol: as §1, §2
# [4] = system: TA1537; test: Reverse mutation assay (Ames test), TA1537
# Protocol: as §1, §2
# [5] = system: WP2 uvrA strains (tryptophan auxotrophic strains); test: Reverse mutation assay (Ames test), E. coli WP2 uvrA
# Protocol: as §1, §2
# [6] = system: ICR mice; test: Oral administration toxicity assay; details: for Days for the test (death) Total: deaths/mice; for Days for the Test (death) 4: day 4
# [7] = system: ICR mice; test: Acute (intravenous administration) toxicity assay; details: for Days for the test (death) 2: day 2; for Days for the test (death) Total: deaths/mice; for Days for the test (death) 1: day 1
# [8] = system: BALB/c mouse spleen cell (responding) and DBA/2 mouse spleen cell (stimulating); assay type: cell-based
# Protocol: MLR tests were carried out to determine the immunosuppressive effect of an immunosuppressive candidate material. When a responding cell (BALB/c mouse spleen cell) and a stimulating cell (DBA/2 mouse spleen cell) were cultured separately, the cells grew little. On the contrary, when the cells were simultaneously cultured, the cells were proliferated due to induction of an antigen-antibody reaction. The proliferated cells were treated with the immunosuppressive candidate material for measurement of the proliferation inhibitory extent.
# After culturing for 72 hours at a CO2 incubator, a 20 μl MTS solution was added to each well, followed by further culturing for 2 to 4 hours and measuring OD at […] by using ELISA.
# [9] = TA1525 (so in the source), 317.5 μg/Plate
# [10] = TA1525 (so in the source), 625 μg/Plate
# [11] = TA1525 (so in the source), 1250 μg/Plate
# [12] = TA1525 (so in the source), 2500 μg/Plate
# [13] = TA1525 (so in the source), 5000 μg/Plate
# [14] = Positive control group, TA1537, 50 μg/Plate
# [15] = Positive control group, TA1535, 0.5 μg/Plate
# [16] = Positive control group, TA100, 0.5 μg/Plate
smiles,measurement,setting,value
COc1cc2c(c(OC)c1OC)-c1ccc(OC)c(=O)cc1[C@@H](NC(C)=O)CC2 [Colchicine],Colony/Plate S-9 Mixture (+),[1]; [9],13 Colony/Plate
same,Colony/Plate S-9 Mixture (−),[1]; [9],18 Colony/Plate
same,Colony/Plate S-9 Mixture (+),[1]; [10],13 Colony/Plate
same,Colony/Plate S-9 Mixture (−),[1]; [10],15 Colony/Plate
same,Colony/Plate S-9 Mixture (+),[1]; [11],7 Colony/Plate
same,Colony/Plate S-9 Mixture (−),[1]; [11],17 Colony/Plate
same,Colony/Plate S-9 Mixture (+),[1]; [12],12 Colony/Plate
same,Colony/Plate S-9 Mixture (−),[1]; [12],17 Colony/Plate
same,Colony/Plate S-9 Mixture (+),[1]; [13],10 Colony/Plate
same,Colony/Plate S-9 Mixture (−),[1]; [13],13 Colony/Plate
same,Colony/Plate S-9 Mixture (+),"[2]; TA100, 317.5 μg/Plate",79 Colony/Plate
same,Colony/Plate S-9 Mixture (−),"[2]; TA100, 317.5 μg/Plate",115 Colony/Plate
same,Colony/Plate S-9 Mixture (+),"[2]; TA100, 625 μg/Plate",76 Colony/Plate
same,Colony/Plate S-9 Mixture (−),"[2]; TA100, 625 μg/Plate",110 Colony/Plate
same,Colony/Plate S-9 Mixture (+),"[2]; TA100, 1250 μg/Plate",100 Colony/Plate
same,Colony/Plate S-9 Mixture (−),"[2]; TA100, 1250 μg/Plate",112 Colony/Plate
same,Colony/Plate S-9 Mixture (+),"[2]; TA100, 2500 μg/Plate",91 Colony/Plate
same,Colony/Plate S-9 Mixture (−),"[2]; TA100, 2500 μg/Plate",115 Colony/Plate
same,Colony/Plate S-9 Mixture (+),"[2]; TA100, 5000 μg/Plate",78 Colony/Plate
same,Colony/Plate S-9 Mixture (−),"[2]; TA100, 5000 μg/Plate",108 Colony/Plate
same,Colony/Plate S-9 Mixture (+),"[3]; TA98, 317.5 μg/Plate",37 Colony/Plate
same,Colony/Plate S-9 Mixture (−),"[3]; TA98, 317.5 μg/Plate",29 Colony/Plate
same,Colony/Plate S-9 Mixture (+),"[3]; TA98, 625 μg/Plate",32 Colony/Plate
same,Colony/Plate S-9 Mixture (−),"[3]; TA98, 625 μg/Plate",29 Colony/Plate
same,Colony/Plate S-9 Mixture (+),"[3]; TA98, 1250 μg/Plate",33 Colony/Plate
same,Colony/Plate S-9 Mixture (−),"[3]; TA98, 1250 μg/Plate",29 Colony/Plate
same,Colony/Plate S-9 Mixture (+),"[3]; TA98, 2500 μg/Plate",37 Colony/Plate
same,Colony/Plate S-9 Mixture (−),"[3]; TA98, 2500 μg/Plate",24 Colony/Plate
same,Colony/Plate S-9 Mixture (+),"[3]; TA98, 5000 μg/Plate",28 Colony/Plate
same,Colony/Plate S-9 Mixture (−),"[3]; TA98, 5000 μg/Plate",26 Colony/Plate
same,Colony/Plate S-9 Mixture (+),"[4]; TA1537, 317.5 μg/Plate",20 Colony/Plate
same,Colony/Plate S-9 Mixture (−),"[4]; TA1537, 317.5 μg/Plate",17 Colony/Plate
same,Colony/Plate S-9 Mixture (+),"[4]; TA1537, 625 μg/Plate",18 Colony/Plate
same,Colony/Plate S-9 Mixture (−),"[4]; TA1537, 625 μg/Plate",14 Colony/Plate
same,Colony/Plate S-9 Mixture (+),"[4]; TA1537, 1250 μg/Plate",18 Colony/Plate
same,Colony/Plate S-9 Mixture (−),"[4]; TA1537, 1250 μg/Plate",10 Colony/Plate
same,Colony/Plate S-9 Mixture (+),"[4]; TA1537, 2500 μg/Plate",21 Colony/Plate
same,Colony/Plate S-9 Mixture (−),"[4]; TA1537, 2500 μg/Plate",8 Colony/Plate
same,Colony/Plate S-9 Mixture (+),"[4]; TA1537, 5000 μg/Plate",21 Colony/Plate
same,Colony/Plate S-9 Mixture (−),"[4]; TA1537, 5000 μg/Plate",9 Colony/Plate
same,Colony/Plate S-9 Mixture (+),[5]; 317.5 μg/Plate,11 Colony/Plate
same,Colony/Plate S-9 Mixture (−),[5]; 317.5 μg/Plate,10 Colony/Plate
same,Colony/Plate S-9 Mixture (+),[5]; 625 μg/Plate,14 Colony/Plate
same,Colony/Plate S-9 Mixture (−),[5]; 625 μg/Plate,6 Colony/Plate
same,Colony/Plate S-9 Mixture (+),[5]; 1250 μg/Plate,14 Colony/Plate
same,Colony/Plate S-9 Mixture (−),[5]; 1250 μg/Plate,11 Colony/Plate
same,Colony/Plate S-9 Mixture (+),[5]; 2500 μg/Plate,12 Colony/Plate
same,Colony/Plate S-9 Mixture (−),[5]; 2500 μg/Plate,10 Colony/Plate
same,Colony/Plate S-9 Mixture (+),[5]; 5000 μg/Plate,8 Colony/Plate
same,Colony/Plate S-9 Mixture (−),[5]; 5000 μg/Plate,11 Colony/Plate
same,Days for the test (death) Total,[6]; 5 mg/kg,0/5
same,Days for the test (death) Total,[6]; 10 mg/kg,0/5
same,Days for the Test (death) 3,"[6]; 25 mg/kg, day 3",3
same,Days for the Test (death) 4,[6]; 25 mg/kg,1
same,Days for the test (death) Total,[6]; 25 mg/kg,4/5
same,Days for the test (death) 2,"[6]; 50 mg/kg, day 2",3
same,Days for the Test (death) 4,[6]; 50 mg/kg,1
same,Days for the Test (death) 5,"[6]; 50 mg/kg, day 5",1
same,Days for the test (death) Total,[6]; 50 mg/kg,5/5
same,Days for the test (death) 2,[7]; 2 mg/kg,3
same,Days for the Test (death) 3,"[7]; 2 mg/kg, day 3",1
same,Days for the test (death) 6,"[7]; 2 mg/kg, day 6",1
same,Days for the test (death) Total,[7]; 2 mg/kg,5/5
same,Days for the test (death) 1,[7]; 5 mg/kg,1
same,Days for the test (death) 2,[7]; 5 mg/kg,4
same,Days for the test (death) Total,[7]; 5 mg/kg,5/5
same,Days for the test (death) 1,[7]; 10 mg/kg,4
same,Days for the test (death) 2,[7]; 10 mg/kg,1
same,Days for the test (death) Total,[7]; 10 mg/kg,5/5
"Nc1c2ccccc2nc2ccccc12 [Compound 9-AA, 9-aminoacridine]",Colony/Plate S-9 Mixture (+),[4]; [14],588 Colony/Plate
same,Colony/Plate S-9 Mixture (−),[4]; [14],175 Colony/Plate
COc1cc2c(c(OC)c1OC)-c1ccc(SC)c(=O)cc1[C@@H](NC(=O)c1cccc(CCl)c1)CC2 [Compound 9],immunosuppressive effect,[8],good immunosuppressive effect
"COc1cc2c(c(OC)c1OC)-c1ccc(S(C)(=O)=O)c(=O)cc1C(NC(=O)CCCO[N+](=O)[O-])CC2 (stereo not drawn) [Compound 10, 4-nitrooxy-N-(1,2,3-trimethoxy-10-methylsulfonyl-9-oxo-5,6,7,9-tetrahydro-benzo[a]heptarene-7-yl)-butylamide]",immunosuppressive effect,"[8]; MLR, FIG. 1",good immunosuppressive effect
COc1cc2c(c(OC)c1OC)-c1ccc(SC)c(=O)cc1[C@@H](NC(=O)c1ccc(CO[N+](=O)[O-])cc1)CC2 [Compound 11],immunosuppressive effect,[8],good immunosuppressive effect
"[N-]=[N+]=[N-] [Sodium azide, sodium azide]",Colony/Plate S-9 Mixture (+),[1]; [15],444 Colony/Plate
same,Colony/Plate S-9 Mixture (−),[1]; [15],279 Colony/Plate
same,Colony/Plate S-9 Mixture (+),[2]; [16],616 Colony/Plate
same,Colony/Plate S-9 Mixture (−),[2]; [16],453 Colony/Plate

# Reference: patent US7119229B2 (priority 2001, dated 2006)
